Literature values, collected in PMC9916969 (International Journal of Molecular Sciences, 2023).

Key:
[1] = cited from earlier work
porcine liver CES = conditions: compound 20 µM; cited from earlier work
equine serum BChE = biological target: T1, equine serum BChE (Equus caballus, UniProt P81908); conditions: compound 20 µM; cited from earlier work
T1 construct: human erythrocyte AChE, equine serum BChE, and porcine liver CES were used; purchased Sigma-Aldrich; host or cells: equine serum (tissue-derived)
T1 sequence (P81908 whole entry): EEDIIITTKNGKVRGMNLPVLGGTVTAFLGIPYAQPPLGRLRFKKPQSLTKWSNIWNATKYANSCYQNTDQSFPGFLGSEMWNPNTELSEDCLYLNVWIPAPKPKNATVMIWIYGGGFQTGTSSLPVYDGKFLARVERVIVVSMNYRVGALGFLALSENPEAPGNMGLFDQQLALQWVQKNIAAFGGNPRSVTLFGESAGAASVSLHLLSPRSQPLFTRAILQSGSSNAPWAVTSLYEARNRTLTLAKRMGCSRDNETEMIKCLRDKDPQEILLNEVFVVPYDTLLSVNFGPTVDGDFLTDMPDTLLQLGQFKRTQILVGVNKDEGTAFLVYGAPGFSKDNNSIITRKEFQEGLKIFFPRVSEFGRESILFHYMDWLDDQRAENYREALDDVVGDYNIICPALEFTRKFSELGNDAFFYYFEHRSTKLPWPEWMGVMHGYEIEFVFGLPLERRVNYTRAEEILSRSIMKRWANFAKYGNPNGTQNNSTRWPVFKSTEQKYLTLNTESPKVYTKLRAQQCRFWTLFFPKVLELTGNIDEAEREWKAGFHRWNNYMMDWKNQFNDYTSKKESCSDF

N-hexylsalicylamide
IC50 ([1]; 50% reduction of ABTS radical cation, read-out: ABTS^•+ Scavenging Activity, IC50): 46.5 ± 2.3 µM | ABTS^•+ Scavenging Activity, TEAC ([1]; Trolox equivalent): 0.39 ± 0.04 | Inhibitory activity against CES, inhibition at 20 µM (porcine liver CES): 4.9 ± 1.0% | Inhibitory activity against BChE, inhibition at 20 µM (equine serum BChE): 10.6 ± 0.8%
